The source of these data is patent US6768007B2, “Substituted 3′,4′-di-O-camphanoyl-(+)-cis-khellactone analogs, compositions thereof, and methods for using thereof” (Panacos Pharmaceuticals, Inc., priority 2001, dated 2004).

SMILES strings stand for the structures. Like-named read-outs stand apart in the source and are kept apart here.

One data set relates to mock-infected H9 cells. Kind of data set: Cytotoxicity in mock-infected (uninfected) H9 cells. Type of data set: cell-based. The method, then: (§1) The biological evaluation of HIV-1 inhibition was carried out according to established protocols, (Kashiwada, Y., et al., J. Med. Chem. 39:1016-1017 (1996); Hashimoto, F., et al., Bioorg. & Med. Chem. 5:2133-2143 (1997)). The T cell line, H9, was maintained in continuous culture log-phase growth in complete medium (RPMI 1640 with 10% fetal calf serum supplemented with L-glutamine at 5% CO2 and 37° C.). Test samples were first dissolved in dimethyl sulfoxide at a concentration of 10 mg/ml to generate master stocks with dilutions made into tissue culture media to generate working stocks. The following drug concentrations were used routinely for screening: 50, 5, and 0.5 μg/mL. For agents found to be active, additional dilutions were prepared for subsequent testing so that an accurate EC50 value (defined below) could be determined. As the test samples were being prepared, an aliquot of the H9 cell line was infected with HIV-1 (IIIB isolate) while a second aliquot was mock-infected with complete medium. […] An amount of virus equal to approximately 6.25×10^4 TCID50 was added to the first aliquot of 3.5×10^6H9 cells. The second aliquot received tissue culture medium only, and these mock-infected cells were used for toxicity determinations (IC50 defined below). After a 4 h incubation at 37° C. and 5% CO2, both cell populations were washed three times with fresh medium and then added to the appropriate wells of a 96-well plate containing various concentrations of the test drug or tissue culture medium (positive infected control/negative drug control). In addition, AZT was assayed during each experiment as a positive drug control. The plates were incubated at 37° C. and 5% CO2 for 5 days. Cell-free culture supernatants were collected on Day 5 for use in a p24 antigen-capture ELISA assay to determine virus replication. p24 is the core protein of HIV and therefore is an indirect measure of the amount of virus present in the culture supernatants. Toxicity was determined using a viable dye method (XTT) on mock-infected H9 cells that were treated with test sample, AZT or no drug. If a test sample suppressed viral replication and was toxic to less than 50% of the cells, its effects were reported in the following terms: IC50, the concentration of test sample which was toxic to 50% of the mock-infected H9 cells; EC50, the concentration of the test sample which was able to suppress HIV replication by 50%; and Therapeutic Index (TI), the ratio of IC50 to EC50.
(§2) Compounds of the present invention were assayed for anti-HIV activity according to the following assay procedures. The T cell line, H9, and the promonocytic cell line, U937, were maintained separately in continuous culture with complete medium (RPMI 1640 with 10% fetal calf serum) at 5% CO2 and 37° C. The cell lines were used in experiments only when in the logarithmic phase of growth, whereas uninfected peripheral blood mononuclear cells (PBMCs) were first stimulated with PHA (1 μg/mL) for three days. All cell targets were incubated with HIV-1 (IIIB isolate, 1×10^6 TCID50/mL) for one hour at 37° C. and 5% CO2. The cell lines and PBMCs were washed thoroughly to remove unadsorbed virions and resuspended at 4×10^5 cells/mL in complete medium or complete medium with 10% v/v interleukin 2 (IL-2), respectively. […] aliquots were placed into wells of 96-well tissue culture plates containing an equal volume of test compounds (diluted in the appropriate culture medium). The toxicity of each compound was assessed by determining the viability of compound-exposed uninfected cells after five days at 37° C. and 5% CO2. A p24 antigen ELISA assay was used to determine the level of virus released in the medium of the HIV-infected cultures. The p24 antigen assay used a HIV-1 anti-p24 specific monoclonal antibody as the capture antibody coated onto 96-well plates. […]

The next data set deals with HIV-1 (IIIB isolate). Kind of data set: Anti-HIV activity in H9 lymphocytes (p24 antigen ELISA). To be noted: H-9 lymphocytes; for Anti-HIV Activity EC50: HIV-1 IIIB, p24 ELISA, day 5, average of at least two experiments; for Therapeutic Index (TI = IC50/EC50): ratio of IC50 to EC50; for anti-viral activity (in words): summary of Table 1. Type of data set: cell-based. As to the method:
as §1, §2
For orientation: An ELISA detects its analyte on a solid surface through an enzyme-linked reagent.

In the case of `CC1(C)Oc2ccc3cc(CBr)c(=O)oc3c2[C@@H](OC(=O)[C@@]23CC[C@@](C)(C(=O)O2)C3(C)C)[C@H]1OC(=O)[C@@]12CC[C@@](C)(C(=O)O1)C2(C)C` (relative stereo) [Compound 1, (3′R,4′R)-3′,4′-Di-O-(S)-(−)-camphanoyl-3-bromomethyl-(+)-cis-khellactone], the “Cytotoxicity IC50” value in the data set on mock-infected H9 cells is 3.38 µg/mL. Also, in the data set on HIV-1 (IIIB isolate), the “Anti-HIV Activity EC50” value was found to be 85.4 ng/mL and the “Therapeutic Index (TI = IC50/EC50)” value amounted to 40.
For the compound `CC1(C)Oc2ccc3cc(C(Br)Br)c(=O)oc3c2[C@@H](OC(=O)[C@@]23CCC(C)(C(=O)O2)C3(C)C)[C@H]1OC(=O)[C@@]12CCC(C)(C(=O)O1)C2(C)C` (relative stereo) [Compound 2, (3′R,4′R)-3′,4′-Di-O-(S)-(−)-camphanoyl-3-dibromomethyl-(+)-cis-khellactone], the “Cytotoxicity IC50” value with mock-infected H9 cells was determined as 3.20 µg/mL. In the data set with HIV-1 (IIIB isolate), the “Anti-HIV Activity EC50” value came to 0.119 ng/mL, the “anti-viral activity (in words)” value is recorded as “most potent” and the “Therapeutic Index (TI = IC50/EC50)” value is given as 26,890.
In the same order, the values of `Cc1c(CBr)c(=O)oc2c3c(ccc12)OC(C)(C)[C@H](OC(=O)[C@@]12CC[C@@](C)(C(=O)O1)C2(C)C)[C@@H]3OC(=O)[C@@]12CC[C@@](C)(C(=O)O1)C2(C)C` (relative stereo) [Compound 3, (3′R,4′R)-3′,4′-Di-O-(S)-(−)-camphanoyl-3-bromomethyl-4-methyl-(+)-cis-khellactone] are 19.4 µg/mL, 0.192 ng/mL, “most potent” and 101,000.
For `CC1(C)Oc2c(CBr)cc3ccc(=O)oc3c2[C@@H](OC(=O)[C@@]23CCC(C)(C(=O)O2)C3(C)C)[C@H]1OC(=O)[C@@]12CCC(C)(C(=O)O1)C2(C)C` (relative stereo) [Compound 4, (3′R,4′R)-3′,4′-Di-O-(S)-(−)-camphanoyl-6-bromomethyl-(+)-cis-khellactone], the “Cytotoxicity IC50” value in the data set on mock-infected H9 cells was determined as 1.99 µg/mL. In the data set on HIV-1 (IIIB isolate), the “Anti-HIV Activity EC50” value worked out at 17.6 ng/mL and the “Therapeutic Index (TI = IC50/EC50)” value amounted to 113.
For the compound `Cc1cc(=O)oc2c3c(c(C(Br)Br)cc12)OC(C)(C)[C@H](OC(=O)[C@@]12CCC(C)(C(=O)O1)C2(C)C)[C@@H]3OC(=O)[C@@]12CCC(C)(C(=O)O1)C2(C)C` (relative stereo) [Compound 5, (3′R,4′R)-3′,4′-Di-O-(S)-(−)-camphanoyl-6-dibromomethyl-4-methyl-(+)-cis-khellactone], in the data set on mock-infected H9 cells, the “Cytotoxicity IC50” value stood at 1.76 µg/mL. In the data set with HIV-1 (IIIB isolate), the “Anti-HIV Activity EC50” value amounted to 21.5 ng/mL and the “Therapeutic Index (TI = IC50/EC50)” value came to 81.8.
For the compound `Cc1cc(=O)oc2c3c(c(CBr)cc12)OC(C)(C)[C@H](OC(=O)[C@@]12CC[C@@](C)(C(=O)O1)C2(C)C)[C@@H]3OC(=O)[C@@]12CC[C@@](C)(C(=O)O1)C2(C)C` (relative stereo) [Compound 6, (3′R,4′R)-3′,4′-Di-O-(S)-(−)-camphanoyl-6-bromomethyl-4-methyl-(+)-cis-khellactone], the “Cytotoxicity IC50” value with mock-infected H9 cells amounted to 25.00 µg/mL. Further, in the data set on HIV-1 (IIIB isolate), the “Anti-HIV Activity EC50” value turned out to be 25 ng/mL and the “Therapeutic Index (TI = IC50/EC50)” value is 1,000.
On to `CC(=O)OCc1cc2ccc3c(c2oc1=O)[C@@H](OC(=O)[C@@]12CCC(C)(C(=O)O1)C2(C)C)[C@@H](OC(=O)[C@@]12CCC(C)(C(=O)O1)C2(C)C)C(C)(C)O3` (relative stereo) [Compound 7, (3′R,4′R)-3′,4′-Di-O-(S)-(−)-camphanoyl-3-acetoxymethyl-(+)-cis-khellactone], for which, in the data set with mock-infected H9 cells, the “Cytotoxicity IC50” value was determined as 3.34 µg/mL. Also, in the data set on HIV-1 (IIIB isolate), the “Anti-HIV Activity EC50” value turned out to be 1.03 ng/mL, the “anti-viral activity (in words)” value is reported as “most potent” and the “Therapeutic Index (TI = IC50/EC50)” value is recorded as 3,243.
In the same order, the values of `CC(=O)OCc1c(C)c2ccc3c(c2oc1=O)[C@@H](OC(=O)[C@@]12CC[C@@](C)(C(=O)O1)C2(C)C)[C@@H](OC(=O)[C@@]12CC[C@@](C)(C(=O)O1)C2(C)C)C(C)(C)O3` (relative stereo) [Compound 8, (3′R,4′R)-3′,4′-Di-O-(S)-(−)-camphanoyl-3-acetoxymethyl-4-methyl-(+)-cis-khellactone] are 18.80 µg/mL, 0.12 ng/mL, “most potent” and 157,000.
Regarding `CC(=O)OCc1cc2c(C)cc(=O)oc2c2c1OC(C)(C)[C@H](OC(=O)[C@@]13CCC(C)(C(=O)O1)C3(C)C)[C@@H]2OC(=O)[C@@]12CCC(C)(C(=O)O1)C2(C)C` (relative stereo) [Compound 9, (3′R,4′R)-3′,4′-Di-O-(S)-(−)-camphanoyl-6-acetoxymethyl-4-methyl-(+)-cis-khellactone], the “Cytotoxicity IC50” value in the data set with mock-infected H9 cells came out at 21.70 µg/mL. In the data set on HIV-1 (IIIB isolate), the “Anti-HIV Activity EC50” value came to 275 ng/mL and the “Therapeutic Index (TI = IC50/EC50)” value amounted to 78.9.
Turning to `CC1(C)Oc2ccc3cc(CO)c(=O)oc3c2[C@@H](OC(=O)[C@@]23CCC(C)(C(=O)O2)C3(C)C)[C@H]1OC(=O)[C@@]12CCC(C)(C(=O)O1)C2(C)C` (relative stereo) [Compound 10, (3′R,4′R)-3′,4′-Di-O-(S)-(−)-camphanoyl-3-hydroxymethyl-(+)-cis-khellactone], in the data set with mock-infected H9 cells, the “Cytotoxicity IC50” value is 35.35 µg/mL. In the data set on HIV-1 (IIIB isolate), the “Anti-HIV Activity EC50” value was found to be 0.188 ng/mL, the “anti-viral activity (in words)” value is given as “most potent” and the “Therapeutic Index (TI = IC50/EC50)” value is recorded as 188,032.
For `Cc1cc(=O)oc2c3c(c(CO)cc12)OC(C)(C)[C@H](OC(=O)[C@@]12CCC(C)(C(=O)O1)C2(C)C)[C@@H]3OC(=O)[C@@]12CCC(C)(C(=O)O1)C2(C)C` (relative stereo) [Compound 12, (3′R,4′R)-3′,4′-Di-O-(S)-(−)-camphanoyl-6-hydroxymethyl-4-methyl-(+)-cis-khellactone] the same measures were 19.3 µg/mL, 0.625 ng/mL, “most potent” and 30,900.
Turning to `COP(=O)(OC)OCc1cc2c(C)cc(=O)oc2c2c1OC(C)(C)[C@H](OC(=O)[C@@]13CCC(C)(C(=O)O1)C3(C)C)[C@@H]2OC(=O)[C@@]12CCC(C)(C(=O)O1)C2(C)C` (relative stereo) [Compound 13, (3′R,4′R)-3′,4′-Di-O-(S)-(−)-camphanoyl-6-(dimethylphosphate)methyl-4-methyl-(+)-cis-khellactone], the “Cytotoxicity IC50” value in the data set on mock-infected H9 cells (uninfected H9 cells, five days, average of at least two experiments) worked out at 1.91 µg/mL. In addition, in the data set with HIV-1 (IIIB isolate), the “Anti-HIV Activity EC50” value worked out at 504 ng/mL and the “Therapeutic Index (TI = IC50/EC50)” value is on record as 3.79.
For the compound `CC1(C)Oc2ccc3cc(CN)c(=O)oc3c2[C@@H](OC(=O)[C@@]23CC[C@@](C)(C(=O)O2)C3(C)C)[C@H]1OC(=O)[C@@]12CC[C@@](C)(C(=O)O1)C2(C)C` (relative stereo) [Compound 14, (3′R,4′R)-3′,4′-Di-O-(S)-(−)-camphanoyl-3-aminomethyl-(+)-cis-khellactone], in the data set with mock-infected H9 cells, the “Cytotoxicity IC50” value was 32.81 µg/mL. Also, the “Anti-HIV Activity EC50” value in the data set with HIV-1 (IIIB isolate) is 390 ng/mL.
Regarding `Cc1cc(=O)oc2c3c(c(CN)cc12)OC(C)(C)[C@H](OC(=O)[C@@]12CC[C@@](C)(C(=O)O1)C2(C)C)[C@@H]3OC(=O)[C@@]12CC[C@@](C)(C(=O)O1)C2(C)C` (relative stereo) [Compound 15, (3′R,4′R)-3′,4′-di-O-(S)-(−)-camphanoyl-6-aminomethyl-4-methyl-(+)-cis-khellactone], the “Cytotoxicity IC50” value in the data set with mock-infected H9 cells came out at 24.1 µg/mL. For the same compound, in the data set on HIV-1 (IIIB isolate), the “Anti-HIV Activity EC50” value is 1 ng/mL, the “anti-viral activity (in words)” value is recorded as “most potent” and the “Therapeutic Index (TI = IC50/EC50)” value is 24,100.
